Reference: patent US20140186260A1, “RADIOPHARMACEUTICAL AND PHARMACEUTICAL KIT” (NIHON MEDI-PHYSICS CO., LTD., priority 2012, published 2014)
Counter-ions that a name gives are not always drawn. Like-named read-outs stand apart in the source and are kept apart here.

Tests used:
HT29 tumor-bearing mice [1] = assay: Effect of Ca-DTPA on in vivo pharmacokinetics of ^64Cu-ATSM in HT29 tumor-bearing mouse (Comparative Example 1); conditions: Ca-DTPA 150 mg/kg i.v. 10 minutes after ^64Cu-ATSM; 1 and 2 hours; vs saline
HT29 tumor-bearing mice [2] = assay: Effect of D-penicillamine on in vivo pharmacokinetics and excretion of ^64Cu-ATSM in HT29 tumor-bearing mouse (2): dose dependence; conditions: D-penicillamine 100, 300 or 500 mg/kg oral 1 hour after ^64Cu-ATSM, vs saline
HT29 tumor-bearing mice [3] = assay: Effect of repeated D-penicillamine with or without glycerin enema on in vivo pharmacokinetics and excretion of ^64Cu-ATSM in HT29 tumor-bearing mouse (4); conditions: D-penicillamine 100 mg/kg oral at 1, 3 and 5 hours after ^64Cu-ATSM, vs saline
From the text: FIGS. 12A, 12B and 12C were expressed in average and standard deviation for 4 mice.

HT29 tumor-bearing mice [4] = assay: Effect of D-penicillamine on in vivo pharmacokinetics and excretion of ^64Cu-ATSM in HT29 tumor-bearing mouse (3): repeated administration; conditions: D-penicillamine 100 mg/kg oral 3 times at 1-hour or 2-hour intervals, vs saline
Protocol: 185 kBq (5 μCi) of ^64Cu-ATSM was administered through the tail vein of the tumor-bearing mice prepared by the same method as Example 3; D-penicillamine was orally administered to 100 mg/kg 1 hour thereafter; and D-penicillamine was then orally administered to 100 mg/kg 2 times at 1-hour or 2-hour intervals. Saline was administered to a control group in place of D-penicillamine. Thereafter, radioactivity in each organ, urine, and feces was measured as Example 4; the radioactivity distributed in each organ was expressed as % ID/g tissue, and the excretion of radioactivity into urine and feces was expressed as % ID.

HT29 tumor-bearing mice [5] = assay: Effect of D-penicillamine on in vivo pharmacokinetics of ^64Cu-ATSM in HT29 tumor-bearing mouse (1): before/after dosing; conditions: vs saline
[6] = ^64Cu complex exchange reaction between ^64Cu-ATSM and chelating agent in mouse plasma (TLC); conditions: 37° C., chelating agent 10 mg/mL, ^64Cu-ATSM 6 μCi/mL, 5, 30 or 60 minutes
Protocol: Blood collected from BALB/c nude mice (male, 6-week old, about 25 g in body weight, obtained from Japan SLC, Inc.) under diethyl ether anesthesia was centrifuged (high-speed cooling centrifuge Model MX-105, from Tomy Co., Ltd., 3,000 rpm, 10 minutes) to provide plasma. In the mouse plasma maintained at 37° C. was mixed each of D-penicillamine, dimercaprol, trientine hydrochloride, and deferoxamine mesylate to a final concentration of 10 mg/mL, to which ^64Cu-ATSM was then added to a final concentration of 6 μCi/mL. After maintaining each of the mixtures at 37° C. for 5 minutes, 30 minutes, or 60 minutes, methanol cooled at 4° C. in advance was added in an equal amount to the plasma thereto, which was thoroughly mixed and centrifuged (as above), followed by analyzing the supernatant by a TLC method.

HT29 tumor-bearing mice [7] = assay: Effect of D-penicillamine on PET imaging of ^64Cu-ATSM in HT29 tumor-bearing mouse; format: in vivo
Protocol: The distribution of radioactivity was imaged using a PET device specific for small animals (Inveon, from Siemens Medical Systems, Inc.) 30 minutes and 2, 3, 4, 5, 6, 7, 8, and 24 hours after the administration of ^64Cu-ATSM. Image acquisition was performed for 5 minutes from each time point, and the image was reconstructed by a 3-dimensional maximum a posteriori probability method (3D-MAP method) using Inveon Acquisition Workplace Software (from Siemens Medical Systems, Inc.). As a control, PET imaging was also similarly performed in mice receiving the administration of saline in place of D-penicillamine.

HT29 tumor-bearing mice [8] = conditions: trientine hydrochloride 500 mg/kg oral 1 hour after ^64Cu-ATSM; vs saline
Protocol: Human large bowel cancer-derived HT29 cells were purchased from ATCC and proliferated for use. The HT29 tumor-bearing model was prepared by implanting 1×10^7 HT29 cells subcutaneously in the femoral region of BALB/c nude mice (male, 6-week old, about 25 g in body weight, obtained from Japan SLC, Inc.), and used for the experiment 3 weeks after implantation. The tumor-bearing mice were fasted from 16 hours or more before the start of the experiment. 185 kBq (5 μCi) of ^64Cu-ATSM was administered through the tail vein of the HT29 tumor-bearing mice, and D-penicillamine was orally administered to 500 mg/kg 10 minutes therebefore or 1 hour thereafter. Saline was administered to a control group in place of D-penicillamine. They were sacrificed by blood removal from the heart under diethyl ether anesthesia 1, 2, and 3 hours after the administration of ^64Cu-ATSM; each tissue was removed and weighed; and radioactivity was further measured using an automatic gamma counter (Model: 1480 Wizard 3, from PerkinElmer Co., Ltd.). The radioactivity distributed in each organ was expressed as radioactivity per g of organ (% ID (Injected Dose)/g tissue) when the amount administered is set to 100%. 185 kBq (5 μCi) of ^64Cu-ATSM was administered through the tail vein of the HT29 tumor-bearing mice prepared by the same method as Example 3, and D-penicillamine was orally administered to 100, 300, or 500 mg/kg 1 hour thereafter. Saline was administered to a control group in place of D-penicillamine. They were sacrificed by blood removal from the heart under diethyl ether anesthesia 2, 4, 6, 16, and 24 hours after the administration of ^64Cu-ATSM; each tissue was removed and weighed; and radioactivity was further measured. The excreted urine and feces were recovered, and radioactivity was similarly measured. The radioactivity distributed in each organ was expressed as ID/g tissue. The excretion of radioactivity into each of urine and feces was expressed as radioactivity (% ID) when the amount administered was set to 100%. 185 kBq (5 μCi) of ^64Cu-ATSM was administered through the tail vein of the tumor-bearing mice prepared by the same method as Example 3, and trientine hydrochloride was orally administered to 500 mg/kg 1 hour thereafter. Saline was administered to a control group in place of trientine hydrochloride. Thereafter, radioactivity in each organ, urine, and feces was measured as Example 4; the radioactivity distributed in each organ was expressed as % ID/g tissue, and the excretion of radioactivity into urine and feces was expressed as % ID.

CD133-positive cells = conditions: Yoshii et al. 2010; cited from earlier work
tumor = conditions: Yoshii et al. 2011; cited from earlier work
[9] = D-penicillamine 300 mg/kg oral 1 hour after 37 MBq ^64Cu-ATSM, vs saline

**Q.** Which “uptake of radioactivity into each organ and tumor” value (HT29 tumor-bearing mice [1]) does the source give for `O=C([O-])CN(CCN(CC(=O)[O-])CC(=O)[O-])CCN(CC(=O)[O-])CC(=O)[O-].[Ca+2].[Na+].[Na+].[Na+]` [Ca-DTPA] here?
**A.** The value was “statistically little affected”.

**Q.** Which results are given for `CC(C)(S)[C@@H](N)C(=O)O` [D-penicillamine]?
**A.** uptake of radioactivity into the liver (HT29 tumor-bearing mice [2]; 2-24 hours): dose-dependently decreased; excretion of radioactivity into feces (HT29 tumor-bearing mice [2]): less affected; excretion of radioactivity into urine (HT29 tumor-bearing mice [2]): statistically significantly promoted; uptake of radioactivity into the tumor (HT29 tumor-bearing mice [2]): not statistically significantly affected; uptake of radioactivity into the liver (HT29 tumor-bearing mice [3]; 6, 16, 24 hours): decreased; excretion of radioactivity into urine (HT29 tumor-bearing mice [3]): statistically significantly promoted; uptake of radioactivity into the tumor (HT29 tumor-bearing mice [3]): not statistically significantly affected; uptake of radioactivity into the liver (HT29 tumor-bearing mice [4]; from 1 hour after ^64Cu-ATSM): decreased; excretion of radioactivity into feces (HT29 tumor-bearing mice [4]): less affected; excretion of radioactivity into urine (HT29 tumor-bearing mice [4]): statistically significantly promoted; uptake of radioactivity into the tumor (HT29 tumor-bearing mice [4]): not statistically significantly affected; uptake of radioactivity into the tumor (HT29 tumor-bearing mice [5]; D-penicillamine 500 mg/kg oral 10 minutes before ^64Cu-ATSM): decreased the uptake of radioactivity into the tumor; uptake of ^64Cu-ATSM into the tumor (HT29 tumor-bearing mice [5]; D-penicillamine 500 mg/kg oral 1 hour after ^64Cu-ATSM): did not affect; uptake of radioactivity into the liver (HT29 tumor-bearing mice [5]; D-penicillamine 500 mg/kg oral, 10 minutes before or 1 hour after ^64Cu-ATSM i.v., 1, 2, 3 hours): markedly decreased; ^64Cu complex exchange reaction from ^64Cu-ATSM to a highly polar complex [6]: Cu-ATSM and unidentified metabolites or degradation products rapidly disappeared, and the origin component increased; accumulation of radioactivity in the bladder (PET) (HT29 tumor-bearing mice [7]; [9]): increase the accumulation of radioactivity in the bladder; accumulation of radioactivity in the liver (PET) (HT29 tumor-bearing mice [7]; [9]): decrease the accumulation of radioactivity in the liver; accumulation of radioactivity in the tumor (PET) (HT29 tumor-bearing mice [7]; [9]): not affected

**Q.** For `OCC(S)CS` (stereo not drawn) [dimercaprol], which “^64Cu complex exchange reaction from ^64Cu-ATSM to a highly polar complex” value (“^64Cu complex exchange reaction” below) [6] is on record?
**A.** The value was “Cu-ATSM and unidentified metabolites or degradation products rapidly disappeared, and the origin component increased”.

**Q.** With `NCCNCCNCCN` [trientine hydrochloride] as the compound, how does the “excretion of radioactivity into feces” value (HT29 tumor-bearing mice [8]) read?
**A.** The value was “less affected”.

**Q.** What about the “excretion of radioactivity into urine” value (HT29 tumor-bearing mice [8]) of the same compound?
**A.** Its value is “statistically significantly promoted”.

**Q.** What about the “uptake of radioactivity into the liver” value (HT29 tumor-bearing mice [8]) of the same compound?
**A.** The value was “tended to be decreased”.

**Q.** And the “uptake of radioactivity into the tumor” value (HT29 tumor-bearing mice [8])?
**A.** The value was “not statistically significantly affected”.

**Q.** And the “^64Cu complex exchange reaction” value [6]?
**A.** Its value is “the effect thereof was relatively weak”.

**Q.** With `CC(=O)N(O)CCCCCNC(=O)CCC(=O)N(O)CCCCCNC(=O)CCC(=O)N(O)CCCCCN` [deferoxamine mesylate] as the compound, how does the “^64Cu complex exchange reaction” value [6] read?
**A.** The value was “No complex exchange reaction”.

**Q.** Which results are given for `CN=C([S-])N/N=C(C)/C(C)=N/NC([S-])=NC.[64Cu+2]` [^64Cu-ATSM, radioactive diacetyl-bis(N4-methylthiosemicarbazone) copper complex]?
**A.** accumulation in CD133-positive cells (CD133-positive cells): accumulates in CD133-positive cells; amount of CD133-positive cells in tumor (tumor): decreased the amount of CD133-positive cells in tumor; tumor size (tumor): shrink the tumor; radioactivity accumulation in the liver after ^64Cu-ATSM (PET) (HT29 tumor-bearing mice [7]; 37 MBq ^64Cu-ATSM i.v., before chelating agent): radioactivity accumulation in the liver was once observed
